In the supplement of paper PMC10307832:

Experiments:
Assay in all cases: relative viability (nuclei count vs DMSO), 5 days (fraction); higher = more cells survive
Pazopanib + Luminespib = compound: Cc1ccc(Nc2nccc(N(C)c3ccc4c(C)n(C)nc4c3)n2)cc1S(N)(=O)=O [Pazopanib] + CCNC(=O)c1noc(-c2cc(C(C)C)c(O)cc2O)c1-c1ccc(CN2CCOCC2)cc1 [Luminespib] (partner 0.01 µM)
Method in brief: (§1)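 One day after seeding in 1536-well plates, lung cancer cell lines were dosed by pin tool. Dosing was either single-drug or a fixed anchor-drug dose plus five library-drug doses (not always all listed) in √10 steps. After 5 days, nuclei were stained in one fix-and-stain step and counted on 4× images, and relative viability is the nuclei count of treated wells over that of vehicle wells, given as the median of duplicate plates.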

Pazopanib + Dasatinib = compound: Cc1ccc(Nc2nccc(N(C)c3ccc4c(C)n(C)nc4c3)n2)cc1S(N)(=O)=O [Pazopanib] + Cc1nc(Nc2ncc(C(=O)Nc3c(C)cccc3Cl)s2)cc(N2CCN(CCO)CC2)n1 [Dasatinib] (partner 0.075 µM)
Method in brief: as §1

Ponatinib + Lapatinib = compound: Cc1ccc(C(=O)Nc2ccc(CN3CCN(C)CC3)c(C(F)(F)F)c2)cc1C#Cc1cnc2cccnn12 [Ponatinib] + CS(=O)(=O)CCNCc1ccc(-c2ccc3ncnc(Nc4ccc(OCc5cccc(F)c5)c(Cl)c4)c3c2)o1 [Lapatinib] (partner 2 µM)
Method in brief: as §1

Ponatinib + Navitoclax = compound: Cc1ccc(C(=O)Nc2ccc(CN3CCN(C)CC3)c(C(F)(F)F)c2)cc1C#Cc1cnc2cccnn12 [Ponatinib] + CC1(C)CCC(c2ccc(Cl)cc2)=C(CN2CCN(c3ccc(C(=O)NS(=O)(=O)c4ccc(N[C@H](CCN5CCOCC5)CSc5ccccc5)c(S(=O)(=O)C(F)(F)F)c4)cc3)CC2)C1 [Navitoclax] (partner 0.5 µM)
Method in brief: as §1

Cell Line	relative viability (Pazopanib + Luminespib; first compound 0.01 µM)	relative viability (Pazopanib + Luminespib; first compound 0.03162 µM)	relative viability (Pazopanib + Luminespib; first compound 0.1 µM)	relative viability (Pazopanib + Luminespib; first compound 0.3162 µM)	relative viability (Pazopanib + Luminespib; first compound 1 µM)	relative viability (Pazopanib + Dasatinib; first compound 0.01 µM)	relative viability (Pazopanib + Dasatinib; first compound 0.03162 µM)	relative viability (Pazopanib + Dasatinib; first compound 0.1 µM)	relative viability (Pazopanib + Dasatinib; first compound 0.3162 µM)	relative viability (Pazopanib + Dasatinib; first compound 1 µM)	relative viability (Ponatinib + Lapatinib; first compound 0.002 µM)	relative viability (Ponatinib + Lapatinib; first compound 0.006325 µM)	relative viability (Ponatinib + Lapatinib; first compound 0.06325 µM)	relative viability (Ponatinib + Lapatinib; first compound 0.2 µM)	relative viability (Ponatinib + Navitoclax; first compound 0.002 µM)	relative viability (Ponatinib + Navitoclax; first compound 0.006325 µM)	relative viability (Ponatinib + Navitoclax; first compound 0.06325 µM)	relative viability (Ponatinib + Navitoclax; first compound 0.2 µM)
NCI-H2347	0.299	0.453	0.898	0.309	0.471	0.27	0.307	0.303	0.353	0.331	0.951	0.908	0.94	0.93	0.684	0.834	0.899	0.719
COR-L23	0.644	0.791	0.72	0.654	0.785	0.512	0.503	0.553	0.449	0.56	0.79	0.931	0.914	0.781	0.977	0.912	1	0.901
NCI-H2087	0.162	0.174	0.171	0.165	0.159	0.743	0.989	0.929	1.01	0.72	0.708	0.781	0.876	0.672	0.825	0.771	0.864	0.995
LC-2-ad	0.992	1.06	1.02	1.03	1.23	0.445	0.555	0.575	0.792	0.535	0.969	0.697	0.49	0.495	0.482	0.419	0.49	0.349
NCI-H1915	0.871	0.805	0.889	0.701	0.699	0.253	0.319	0.321	0.318	0.402	0.908	0.95	0.986	1.02	0.779	0.795	0.772	0.746
NCI-H1944		0.784	0.771	0.86	0.857		0.226	0.226	0.237	0.247	0.775	0.807	0.915	0.849	1.04	1.09	1.2	1.02
NCI-H2023	0.781	0.77	0.652	0.613	0.883	0.528	0.566	0.473	0.535	0.577	0.81	0.861	0.958	0.642	0.968	0.946	1.1	1
COR-L 105	1.06	0.539	0.765	0.909	0.787	0.351	0.296	0.327	0.453	0.406	0.385	0.369	0.374	0.347	0.832	0.8	0.832	0.955
SK-LU-1	0.222	0.221	0.175	0.22	0.232	0.142	0.179	0.192	0.189	0.174	0.636	0.858	0.864	0.741	0.702	0.792	0.902	0.453
